The results in this text go back to ChEMBL document CHEMBL1201862, “PubChem BioAssay data set” (2004).

Experiment [1] can be described thus: microbe, parasite or virus in culture. The class given is functional. The following applies: Mycobacterium tuberculosis.
Experiment [2] is described as follows: A High Throughput Confirmatory Assay used to Identify Novel Compounds that Inhibit Mycobacterium Tuberculosis in the absence of Glycerol. The class given is functional.
Experiment [3] can be described thus: cells.
The target of experiment [4] is Peroxisome proliferator-activated receptor gamma/Nuclear receptor corepressor 2 (Homo sapiens, UniProt P37231+Q9Y618). The class given is functional.
For experiment [5], the target named is Major prion protein (Homo sapiens, UniProt P04156). Format: functional, cell-based.
The target in experiment [6] is Photoreceptor-specific nuclear receptor (Homo sapiens, UniProt Q9Y5X4). Format: functional.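 Also: potency for compounds that break the NR2E3 corepressor complex and count as activators.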
The target of experiment [7] is T1, Mannose-6-phosphate isomerase (Homo sapiens, UniProt P34949).
T1 sequence (P34949 whole entry): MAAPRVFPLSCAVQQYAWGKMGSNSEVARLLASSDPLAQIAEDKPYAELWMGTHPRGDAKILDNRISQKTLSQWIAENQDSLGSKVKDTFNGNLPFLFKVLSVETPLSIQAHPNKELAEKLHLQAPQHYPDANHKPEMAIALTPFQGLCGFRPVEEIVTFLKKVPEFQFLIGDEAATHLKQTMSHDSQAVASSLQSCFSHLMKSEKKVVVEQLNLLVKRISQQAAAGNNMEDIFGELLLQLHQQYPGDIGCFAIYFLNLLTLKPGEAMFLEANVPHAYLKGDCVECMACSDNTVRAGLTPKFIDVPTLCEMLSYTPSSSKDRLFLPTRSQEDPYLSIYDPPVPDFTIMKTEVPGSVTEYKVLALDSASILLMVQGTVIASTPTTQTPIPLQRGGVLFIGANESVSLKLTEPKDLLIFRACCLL
As to the kind of experiment: MPI enzyme activity inhibition – biochemical, fluorescence intensity, coupled assay, primary screen (AID 1209).

The target in experiment [8] is Procathepsin L (Homo sapiens, UniProt P07711). As to the kind of experiment: CTSL1 protease inhibition – biochemical, QFRET, 1536-well, counter-screen for M1/M17 aminopeptidase inhibitor project, dose response (AID 2214). For orientation: Counterscreens check selectivity or assay interference.
In experiment [9] the target is T2, Leucine aminopeptidase (Plasmodium falciparum 3D7, UniProt Q8IL11).
T2 sequence (Q8IL11 whole entry): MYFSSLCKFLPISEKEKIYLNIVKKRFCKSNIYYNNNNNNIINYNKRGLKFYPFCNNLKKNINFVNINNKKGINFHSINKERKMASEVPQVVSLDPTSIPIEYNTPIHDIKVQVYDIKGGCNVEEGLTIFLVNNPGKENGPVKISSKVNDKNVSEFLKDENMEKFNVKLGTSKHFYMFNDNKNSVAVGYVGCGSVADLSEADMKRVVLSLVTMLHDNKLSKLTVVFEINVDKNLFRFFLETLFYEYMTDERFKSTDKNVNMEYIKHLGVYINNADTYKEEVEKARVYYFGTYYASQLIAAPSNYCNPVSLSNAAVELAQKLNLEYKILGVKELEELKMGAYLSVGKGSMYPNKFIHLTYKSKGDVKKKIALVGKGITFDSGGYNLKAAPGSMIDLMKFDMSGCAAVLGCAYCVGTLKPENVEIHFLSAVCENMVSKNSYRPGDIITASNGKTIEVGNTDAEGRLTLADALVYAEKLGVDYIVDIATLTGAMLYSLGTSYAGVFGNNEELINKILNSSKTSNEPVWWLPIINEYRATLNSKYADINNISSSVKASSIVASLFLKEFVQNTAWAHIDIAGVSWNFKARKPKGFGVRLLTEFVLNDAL
Put plainly: P. falciparum M17LAP inhibitors, primary screen, biochemical, fluorogenic H-Leu-NHMec substrate, 1536-well (AID 1619). Format: functional.

For experiment [10], the target named is Aspartyl aminopeptidase (Plasmodium falciparum 3D7, UniProt Q8I2J3). As to the kind of experiment: Counterscreen for inhibitors of M1 and M17 aminopeptidases: QFRET-based biochemical high throughput dose response assay for inhibitors of the Plasmodium falciparum M18 Aspartyl Aminopeptidase (PFM18AAP). [Related PubChem assays: 1619 (Screening assay (M17LAP inhibitors).), 1445 (Screening assay (M1AAP inhibitors).)].

Experiment [11] deals with T3, Luciferin 4-monooxygenase (Photinus pyralis, UniProt P08659). Put plainly: Counter Screen for Luciferase-based Assay Positives. [Related pubchem assays: 620, 618, 411 ].
In experiment [12] the target is T4, Protein skinhead-1 (Caenorhabditis elegans, UniProt P34707).
T4 sequence (P34707 whole entry): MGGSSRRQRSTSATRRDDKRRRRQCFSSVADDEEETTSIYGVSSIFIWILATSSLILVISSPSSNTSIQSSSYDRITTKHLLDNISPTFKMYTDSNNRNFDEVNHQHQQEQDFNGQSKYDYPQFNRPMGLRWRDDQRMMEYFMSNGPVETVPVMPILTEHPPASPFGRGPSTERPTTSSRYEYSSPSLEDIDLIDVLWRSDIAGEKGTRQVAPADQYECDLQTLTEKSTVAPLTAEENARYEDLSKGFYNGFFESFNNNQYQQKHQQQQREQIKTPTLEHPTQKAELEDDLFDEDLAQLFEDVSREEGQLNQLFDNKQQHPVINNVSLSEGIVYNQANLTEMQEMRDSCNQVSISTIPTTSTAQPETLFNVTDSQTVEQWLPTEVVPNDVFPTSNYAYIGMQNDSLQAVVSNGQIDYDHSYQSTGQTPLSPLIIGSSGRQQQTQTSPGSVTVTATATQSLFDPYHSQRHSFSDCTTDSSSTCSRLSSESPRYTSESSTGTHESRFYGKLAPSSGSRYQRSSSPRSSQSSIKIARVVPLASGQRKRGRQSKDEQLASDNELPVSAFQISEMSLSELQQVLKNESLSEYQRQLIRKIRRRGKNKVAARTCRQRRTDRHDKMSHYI
The class given is functional.

Experiment [13] concerns the target T3, Luciferin 4-monooxygenase. As to the kind of experiment: inhibition of purified Photinus pyralis luciferase – biochemical, luminescence, dose response (AID 1891).
Experiment [14] is described as follows: Luminescence Cell-Based Dose Confirmation HTS to Identify Inhibitors of Platelet Dense Granule Release. [Related pubchem assays: 1663 (Primary HTS), 1678 (Summary of Project)]. Format: functional.
The subject of experiment [15] is HT-1080. As to the kind of experiment: HT1080 cell viability loss – fluorescence readout (AID 620). The class given is functional, cell-based. Particulars: Homo sapiens.
Experiment [16] is described as follows: luciferase reporter signal suppression in cells – H4 neuroglioma cells, luminescence, dose response (AID 1990). Format: functional, cell-based. On the technique in general: In a reporter assay the amount or activity of a reporter protein is the signal.
Experiment [17] is described as follows: A cytotoxicity screen of small molecule inhibitors of the PhoP region in Salmonella typhi identified in the primary screen. [Related pubchem assays: 1850, 1864, 1985 ]. Format: functional.
Experiment [18] is described as follows: alpha-synuclein stem-loop luciferase translation blockers – H4 neuroglioma cells, luminescence, confirmation (AID 1988). Format: functional, cell-based.
For experiment [19], the target named is Lytic switch protein BZLF1 (Epstein-Barr virus (strain B95-8) (HHV-4) (Human herpesvirus 4), UniProt P03206). As to the kind of experiment: inhibition of BZLF1 ZTA DNA binding – biochemical, fluorescence polarization, Epstein-Barr virus, 1536-well, counter-screen for EBNA-1 inhibitor project, dose response (AID 2377).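 Also: fluorescence polarization of Cy5-labelled ZRE DNA probe bound by purified Zta.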 More on the design: species or system human gammaherpesvirus 4. Background: Fluorescence polarisation rises when a labelled molecule tumbles more slowly, as on binding a larger partner.

Experiment [20] addresses Epstein-Barr nuclear antigen 1 (Epstein-Barr virus (strain B95-8) (HHV-4) (Human herpesvirus 4), UniProt P03211). Put plainly: inhibition of EBV nuclear antigen 1 DNA binding – biochemical, fluorescence polarization, 1536-well, dose response (AID 2381).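 Also: fluorescence polarization of a Cy5 DNA probe bound by EBNA-1 protein.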 More on the design: species or system human gammaherpesvirus 4.
Experiment [21] has as its target Melanin-concentrating hormone receptor 1 (Homo sapiens, UniProt Q99705). Put plainly: Fluorescence-based counterscreen for antagonists of the G-protein coupled receptor 7 (GPR7): cell-based high throughput dose response assay to identify antagonists of the melanin-concentrating hormone receptor 1 (MCHR1). The class given is functional.
Experiment [22] concerns Staphylococcus aureus. Put plainly: Inhibitors of Bacterial Quorum Sensing Structure Activity Relationship (SAR) Analysis: Dose Response Assay. [Related pubchem assays: 700, 527 ]. Format: functional, organism-based.
Experiment [23] addresses Estrogen receptor beta (Homo sapiens, UniProt Q92731). Put plainly: blockers of SRC-3 recruitment to ERβ – biochemical, ELISA, streptavidin-HRP readout, orthogonal assay, confirmation (AID 1060).
A short description of experiment [24]: cells. The class given is functional.

The structures appear in SMILES notation. Activity calls are given as the source filed them.

A word on the IC50: it is the midpoint of a concentration-inhibition curve. In the case of `O=C1NCC(c2ccccc2)C1C(=O)N/N=C\c1ccc(-c2ccc(Cl)c(Cl)c2)o1` (stereo not drawn), the CC50 in experiment [1] is > 40 µM (active). The IC50 in experiment [2] is > 100 µM (active).
For `Brc1cc(Br)c2ncnc(N3CCCCC3)c2c1`, the IC50 is > 138 µM (inactive) in experiment [3], 2.36 µM (active) in experiment [4], 1.38 µM (active) in experiment [5] and 1.42 µM (active) in experiment [6].
Take `CCCCCC1(C)NC(=S)N(c2ccccc2)N1` (stereo not drawn): the half-inhibitory concentration (IC50) in experiment [7] is > 50 µM (not active).
As for `CC(C)c1ccc(NC(=O)C2CCCCC2C(=O)O)cc1` (stereo not drawn), the IC50 is > 59.6 µM (not active) in experiment [8], 3.51 µM (active) in [9] and > 73.5 µM (not active) in [10].
Broadly, the EC50 is the concentration at which the effect is half-maximal. For the molecule `CN(C)c1ccc(N/C=C/C(=O)c2ccco2)cc1`, the EC50 is < 0.2 µM (active) in [11], 1.9 µM (active) in [13], 0.891 µM (active) in [14] and > 50 µM (not active) in experiment [15]. Also, the IC50 in experiment [12] was 76.5 µM (inactive).
`CCN(CC)S(=O)(=O)c1ccc(/C(O)=C(\C#N)c2nc3ccccc3n2C)cc1`: the concentration for a half-maximal effect (EC50) in experiment [16] is > 120 µM (not active); in experiment [17] it was > 50 µM (active); in experiment [18], > 120 µM (not active).
Consider `O=C(CCCCCNc1nc(S)nc2ccccc12)NCCc1ccc(Cl)cc1`, for which the IC50 in experiment [19] was > 111 µM (not active); in experiment [20], 13.4 µM (not active).
Take `Cc1cc(C)c[n+](CC(=O)c2ccc(NC(=O)c3ccccc3)cc2)c1`: the EC50 in experiment [17] was > 50 µM (active).
For `Cc1cc(=O)oc2cc(OC(=O)c3ccccc3)ccc12`, the IC50 in [21] is on record as > 43.8 µM (not active).
Consider `Cc1ccc(Cl)c(Nc2ccccc2C(=O)O)c1Cl` [MECLOFENAMIC ACID], for which, in experiment [22], the IC50 was 0.877 µM (active).
With `Fc1ccc(CSc2ncnc3c2oc2ccccc23)cc1`, the concentration for half-maximal inhibition (IC50) in experiment [23] is listed as > 50 µM (not active).
Take `COc1ccccc1CNC(=O)c1ccc2nc3[nH]c4ccccc4c3nc2c1`: the IC50 in [19] is recorded as > 111 µM (not active); in experiment [20], 14.4 µM (not active).
On to `CCCCCC1CC(CC(=O)NC(=S)Nc2ccc([N+](=O)[O-])cc2)C(=O)O1` (stereo not drawn), for which the figures for the IC50 in [2] and in experiment [24] were > 100 µM (active) and 20.3 µM (active), respectively.
